Measurements: patent US20240327320A1, “NOVEL ROUTES OF CHEMICAL SYNTHESIS OF 20S(OH)D3, 20S,25(OH)2D3, 20S,23S(OH)2D3, AND 20S,23R(OH)2D3 AND THEIR MODIFICATION OF THE IMMUNE ACTIVITY OF PBMCS” (United State Government as represen ted by the Department …, priority 2023, published 2024)

How the values were obtained:
[1] = tested on: Human epidermal (HaCaT) keratinocytes; assay: Proliferation, MTS assay, keratinocytes; type: cell-based; settings: 24 h or 48 h, 0.1-100 nM, FIG. 6
Procedure: (§1) Human dermal fibroblasts isolated from the skin of black neonates (HDFn) and human epidermal (HaCaT) keratinocytes cultured as described previously (Slominski A, et. al., (2013) The Journal of Clinical Endocrinology and Metabolism 98(2) E298-303; Slominski A T, et. al., (2011) Am J Physiol Cell Physiol 300(3) C526-41) were used for the experiments. Briefly, HDFn were plated onto 96-well plates at a confluence of about 70% in their seventh passage. Both HDFn and HaCaT keratinocytes were treated with 20S(OH)D3, 20S,25(OH)2D3, 20S,23S(OH)2D3, 20S,23R(OH)2D3 or 1α,25(OH)2D3 (Sigma-Aldrich, St. Louis, MO, USA) dissolved in ethanol and diluted in DMEM containing charcoal-treated serum, as previously described (Janjetovic Z, et. al., (2021) Endocrinology 162(1); Chaiprasongsuk A, et. al., (2020) Free Radic Biol Med 155 87-98; Slominski A T, et. al., (2011) Am J Physiol Cell Physiol 300(3) (2011) C526-41). The vehicle control comprised 0.1% ethanol. Proliferation was estimated using MTS (Promega, Madison, WI) assay. The number of viable cells was measured in 6 replicates.
(§2) Referring to FIG. 6A-D, inhibition of cell proliferation by 20S(OH)D3, 20S,25(OH)2D3, 20S,23S(OH)2D3 and 20S,23R(OH)2D3 in comparison to 1α,25(OH)2D3 is represented. […] Data are means±SD (n=6) and were analyzed using Student's t-test with p<0.05 (*), p<0.01 (**) or p<0.001 (***).

[2] = literature, at the same doses; cited from earlier work
[3] = tested on: Human dermal fibroblasts (HDFn); assay: Proliferation, MTS assay, fibroblasts; type: cell-based; settings: 24 h or 48 h, 0.1-100 nM, FIG. 6
Procedure: as §1, §2

Human AhR = target: T1, Human AhR (Homo sapiens, UniProt P35869); assay: Human AhR Reporter Assay System (luciferase); type: cell-based; settings: 23 h treatment
T1 construct: purchased Indigo Biosciences
T1 sequence (P35869 11-848): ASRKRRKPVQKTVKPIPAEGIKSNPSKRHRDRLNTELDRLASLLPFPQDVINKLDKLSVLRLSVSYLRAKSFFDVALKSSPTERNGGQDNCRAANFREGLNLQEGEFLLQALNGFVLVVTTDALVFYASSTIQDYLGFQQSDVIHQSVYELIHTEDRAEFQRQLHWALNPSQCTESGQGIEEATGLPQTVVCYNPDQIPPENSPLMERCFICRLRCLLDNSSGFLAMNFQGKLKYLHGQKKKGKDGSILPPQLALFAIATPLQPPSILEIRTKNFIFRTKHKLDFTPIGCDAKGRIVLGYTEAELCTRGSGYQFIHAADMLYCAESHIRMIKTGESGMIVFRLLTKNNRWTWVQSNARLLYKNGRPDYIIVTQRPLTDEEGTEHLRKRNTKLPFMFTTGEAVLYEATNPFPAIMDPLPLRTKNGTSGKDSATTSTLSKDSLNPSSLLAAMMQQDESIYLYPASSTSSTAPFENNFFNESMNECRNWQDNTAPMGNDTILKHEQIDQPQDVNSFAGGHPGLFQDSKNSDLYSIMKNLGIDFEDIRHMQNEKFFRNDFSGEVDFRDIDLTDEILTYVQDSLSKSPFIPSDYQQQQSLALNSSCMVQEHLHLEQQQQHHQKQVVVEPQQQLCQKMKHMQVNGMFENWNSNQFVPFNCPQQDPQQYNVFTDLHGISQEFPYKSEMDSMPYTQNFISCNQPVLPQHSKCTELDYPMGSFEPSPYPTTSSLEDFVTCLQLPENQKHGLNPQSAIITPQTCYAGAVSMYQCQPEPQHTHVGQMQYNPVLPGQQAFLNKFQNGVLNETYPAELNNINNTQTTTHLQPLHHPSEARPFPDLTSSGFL
Procedure: The binding of chemically synthesized secosteroids to AhR was tested using the Human AhR Reporter Assay System (Indigo Biosciences, State College, PA, USA) following the manufacturer's protocol and as detailed previously (Slominski A T, et. al., (2018) Int J Mol Sci 19(10)). Briefly, the cells including the luciferase reporter gene linked to an AhR-responsive promoter were treated with the compounds for 23 h and the luminescence signal was measured using Cytation 5 (Biotek, Winooski, VT, USA) after treatment with the detection substrate provided in the kit system.

[4] = tested on: Human epidermal keratinocytes (HEKn); assay: Gene expression of differentiation markers, quantitative RT-PCR; type: cell-based; settings: 8 h, FIG. 7A, compared to 20S(OH)D3
Procedure: RNA isolation and reverse transcription were performed as described previously (Slominski A T, et. al., (2021) Sci Rep 11(1) 8002). Quantitative RT-PCR was carried out using Sybr green Master Mix (Thermo Scientific, Waltham, MA), in triplicates as previously described (Slominski A T, et. al., (2021) Sci Rep 11(1) 8002; Janjetovic Z, et. al., (2014) J Pineal Res 57(1) 90-102). Human epidermal keratinocytes (HEKn) isolated from foreskin of white neonates were cultured until the third passage before treatment as described in the literature (Chaiprasongsuk A, et. al., (2019) Redox Biol 24 101206; Janjetovic Z, et. al., (2009) PloS one 4(6) e5988). Cells were treated with vitamin D3 derivatives for 8 h or 24 h and harvested for RNA isolation. Approximately 300 ng of RNA was used for cDNA synthesis and an equal amount of cDNA was used for PCR reactions. Cyclophilin B or GAPDH was used as an internal control. Primers sequences are listed in (Chaiprasongsuk A, et. al., (2020) Free Radic Biol Med 155 87-9845, Slominski A T, et. al., (2017) Sci Rep 7(1) 11434). Reactions were done in triplicate.
Referring to FIG. 7A-D, stimulation of keratinocyte differentiation by 20S(OH)D3, 20S,25(OH)2D3, 20S,23S(OH)2D3 and 20S,23R(OH)2D3 in comparison to 1α,25(OH)2D3. […]

| Structure (SMILES) | inhibition of keratinocyte proliferation [1] | calcemic activity / toxicity [2] | inhibition of fibroblast proliferation [3] | activity on AhR (Human AhR) | gene expression of involucrin, CK10, and filaggrin [4] |
| --- | --- | --- | --- | --- | --- |
| C=C1CC[C@H](O)C/C1=C/C=C1\CCC[C@@]2(C)[C@H]1CC[C@@H]2[C@@](C)(O)CCCC(C)C [20S(OH)D3, (20S)-20-Hydroxyvitamin D3] | inhibits fibroblast and keratinocyte proliferation | non-calcemic | inhibits fibroblast and keratinocyte proliferation | – | – |
| C=C1CC[C@H](O)C/C1=C/C=C1\CCC[C@@]2(C)[C@H]1CC[C@@H]2[C@@](C)(O)C[C@H](O)CC(C)C [20S,23R(OH)2D3, (20S,23R)-20,23-Dihydroxyvitamin D3] | – | – | – | reverse agonist | – |
| C=C1CC[C@H](O)C/C1=C/C=C1\CCC[C@@]2(C)[C@H]1CC[C@@H]2[C@@](C)(O)C[C@@H](O)CC(C)C [20S,23S(OH)2D3, (20S,23S)-20,23-Dihydroxyvitamin D3] | – | non-calcemic | – | agonistic activity | – |
| C=C1CC[C@H](O)C/C1=C/C=C1\CCC[C@@]2(C)[C@H]1CC[C@@H]2[C@@](C)(O)CCCC(C)(C)O [20S,25(OH)2D3, (20S)-20,25-Dihydroxyvitamin D3] | inhibits fibroblast and keratinocyte proliferation | – | inhibits fibroblast and keratinocyte proliferation | – | slightly better at inducing gene expression of involucrin, CK10, and filaggrin |
